Source: ChEMBL document CHEMBL1126780, “Selective non-nucleoside HIV-1 reverse transcriptase inhibitors. New 2,3-dihydrothiazolo[2,3-a]isoindol-5(9bH)-ones and related compounds with anti-HIV-1 activity” (J Med Chem, 1993)
Structures can show the parent of a compound that is named as a salt.

These molecules were tested on MT2 (assay: Inhibitory concentration which prevents the spread of HIV-1 IIIB infection in MT2 T-lymphoid cells). Details: Homo sapiens.
Format: functional, cell-based

Structure (SMILES)	IC50 [µM]
Cc1ccnc(C23SCCN2C(=O)c2cccnc23)c1 (stereo not given)	7.8
O=C1c2ccccc2[C@@]2(c3cccc4ccccc34)SCCN12	0.046
Cc1cc(C)cc([C@]23SCCN2C(=O)c2ccccc23)c1	0.01
Cc1cccc([C@]23SCCN2C(=O)c2ccccc23)c1	0.051
CC(C)=CCN1Cc2cccc3[nH]c(=S)n(c23)C[C@@H]1C	0.217
O=C1c2ccc(Cl)cc2[C@@]2(c3ccccc3)SCCN12	0.074
O=C1c2ccccc2[C@@]2(c3ccccc3)SCCN12	0.392
CCNc1cccnc1N1CCN(C(=O)c2cc3cc(OC)ccc3[nH]2)CC1 [ATEVIRDINE MESYLATE]	1.59
CCc1cc(NCc2nc3c(Cl)ccc(Cl)c3o2)c(O)nc1C [L-697661]	0.08
Cc1ccnc2c1NC(=O)c1cccnc1N2C1CC1 [NEVIRAPINE]	0.303

Each molecule was assayed against Human immunodeficiency virus type 1 reverse transcriptase (Human immunodeficiency virus 1, UniProt Q72547) (assay: Inhibitory activity against HIV-1 reverse transcriptase (HIV-RT)). Details: not given.

Structure (SMILES)	IC50 [µM]
Cc1ccc(C)c(C23SCCN2C(=O)c2ccccc23)c1 (stereo not given)	0.97
O=C1c2ccncc2C2(c3ccccc3)SCCN12 (stereo not given)	17
O=C1c2ccccc2[C@]2(c3ccccc3)SCCN12	39.6
O=C1c2ccc(C(F)(F)F)cc2C2(c3ccccc3)SCCN12 (stereo not given)	17.7
O=C1c2ccccc2C2(c3cccc(O)c3)SCCN12 (stereo not given)	12.7
O=C1c2ccccc2C2(c3ccccc3)SCCCN12 (stereo not given)	2.2
NC(=O)[C@H]1CSC2(c3ccccc3)c3ccccc3C(=O)N12 (stereo not given in full)	59
Cc1ccc(C23SCCN2C(=O)c2ccccc23)cc1 (stereo not given)	0.77
O=C1c2ccccc2C2(c3cccc([N+](=O)[O-])c3)SCCN12 (stereo not given)	0.86
Cc1ccnc(C23SCCN2C(=O)c2ccccc23)c1 (stereo not given)	1
O=C1c2ccccc2C2(c3cccnc3)SCCN12 (stereo not given)	28
Cc1cccc(C23SCCN2C(=O)c2ccccc23)c1C (stereo not given)	1.65
O=C1c2ccccc2C2(c3ccco3)SCCN12 (stereo not given)	1.35
S=C1c2ccccc2C2(c3ccccc3)SCCN12 (stereo not given)	3.5
O=C1c2ccccc2C2(c3ccccc3)OCCN12 (stereo not given)	6.1
COc1ccc2c(c1)C(=O)N1CCSC21c1ccccc1 (stereo not given)	4
Cc1ccnc(C23SCCN2C(=O)c2cccnc23)c1 (stereo not given)	4.6
Cc1ccc2c(c1)C1(c3ccccc3)SCCN1C2=O (stereo not given)	0.72
O=C1c2cccnc2C2(c3ccccn3)SCCN12 (stereo not given)	23
O=C1c2ccccc2C2(c3ccccn3)SCCN12 (stereo not given)	5.85
O=C1c2ccccc2C2(c3cc(Cl)cc(Cl)c3)SCCN12 (stereo not given)	0.59
O=C1c2ccccc2C2(c3cccc4c3CCC4)SCCN12 (stereo not given)	0.9
O=C1c2ccccc2[C@@]2(c3cccc4ccccc34)SCCN12	0.15
C[C@H]1CN2C(=O)c3ccccc3C2(c2ccccc2)O1 (stereo not given in full)	> 100
Cc1cc(C)cc([C@]23SCCN2C(=O)c2ccccc23)c1	0.016
O=C1c2cc(Cl)ccc2C2(c3ccccc3)SCCN12 (stereo not given)	24
O=C1c2ccccc2C2(c3ccccc3)NCCCN12 (stereo not given)	> 10

Structure (SMILES)	IC50 [µM]
COc1ccc2c(c1)C1(c3ccccc3)SCCN1C2=O (stereo not given)	3.6
Cc1ccc(C23SCCN2C(=O)c2ccccc23)cc1C (stereo not given)	0.39
O=C1c2ccccc2C2(c3ccccc3)OCCCN12 (stereo not given)	51
COc1cccc(C23SCCN2C(=O)c2ccccc23)c1 (stereo not given)	0.97
O=C1c2ccccc2C2(c3ccccc3)SCCN12 (stereo not given)	0.7
Cc1cccc([C@]23SCCN2C(=O)c2ccccc23)c1	0.035
CC(C)c1cccc(C23SCCN2C(=O)c2ccccc23)c1 (stereo not given)	2.1
O=C1c2ccccc2C2(c3ccccc3)CCCN12 (stereo not given)	15
O=C1c2cc(Cl)c(Cl)cc2C2(c3ccccc3)SCCN12 (stereo not given)	4.48
O=C1c2cc3ccccc3cc2C2(c3ccccc3)SCCN12 (stereo not given)	10
O=C1c2c(ccc3ccccc23)C2(c3ccccc3)SCCN12 (stereo not given)	> 100
O=C1c2cccc(Cl)c2C2(c3ccccc3)SCCN12 (stereo not given)	0.29
O=C1c2ccccc2C2(c3ccc(Cl)c(Cl)c3)SCCN12 (stereo not given)	4
O=C1c2ccc(Cl)cc2C2(c3ccccc3)SCCN12 (stereo not given)	0.19
Cc1cccc(C23SCCN2C(=O)c2cccnc23)n1 (stereo not given)	6.6
O=C1c2ccc([N+](=O)[O-])cc2C2(c3ccccc3)SCCN12 (stereo not given)	10
O=C1c2ccccc2C2(c3c4ccccc4cc4ccccc34)SCCN12 (stereo not given)	0.9
O=C1c2ccccc2C2(c3cccc(Cl)c3)SCCN12 (stereo not given)	0.14
O=C1c2ccc(Cl)cc2[C@@]2(c3ccccc3)SCCN12	0.09
CC(C)c1ccc(C23SCCN2C(=O)c2ccccc23)cc1 (stereo not given)	10
Cc1ccc2c(c1)C(=O)N1CCSC21c1ccccc1 (stereo not given)	10
O=C1c2ccccc2C2(c3ccc(Cl)cc3)SCCN12 (stereo not given)	4
Cc1cccc2c1C(=O)N1CCSC21c1ccccc1 (stereo not given)	8
O=C1c2ccccc2C2(c3ccc[nH]3)SCCN12 (stereo not given)	> 100
COc1ccc(C23SCCN2C(=O)c2ccccc23)cc1 (stereo not given)	> 30
O=C1c2cccnc2C2(c3ccccc3)SCCN12 (stereo not given)	3.45
O=C1c2cnccc2C2(c3ccccc3)SCCN12 (stereo not given)	> 100

Structure (SMILES)	IC50 [µM]
O=C(O)[C@H]1CSC2(c3ccccc3)c3ccccc3C(=O)N12 (stereo not given in full)	> 100
C[C@@H]1COC2(c3ccccc3)c3ccccc3C(=O)N12 (stereo not given in full)	40
COC(=O)[C@H]1CSC2(c3ccccc3)c3ccccc3C(=O)N12 (stereo not given in full)	0.22
O=C1c2ccccc2C2(c3ccccc3)N1CCS2(=O)=O (stereo not given)	> 10
N#Cc1cccc(C23SCCN2C(=O)c2ccccc23)c1 (stereo not given)	1.81
C[C@H]1COC2(c3ccccc3)c3ccccc3C(=O)N12 (stereo not given in full)	73
Cc1cc(C)cc(C23SCCN2C(=O)c2ccccc23)c1 (stereo not given)	0.084
O=C1c2ncccc2C2(c3ccccc3)SCCN12 (stereo not given)	> 100
O=C1c2ccc3ccccc3c2C2(c3ccccc3)SCCN12 (stereo not given)	26
Cc1ccccc1C12SCCN1C(=O)c1ccccc12 (stereo not given)	6.3
O=C1c2ccccc2C2(c3cccs3)SCCN12 (stereo not given)	2.65
Cc1cccc(C23SCCN2C(=O)c2ccccc23)c1 (stereo not given)	0.035
O=C1c2ccccc2C2(c3ccccc3)Sc3ccccc3CN12 (stereo not given)	40
O=C1c2ccccc2C2(c3ccccc3)NCCN12 (stereo not given)	> 100
O=C1c2ccccc2C2(c3ccccc3)CCCCN12 (stereo not given)	75.5
CCc1cccc(C23SCCN2C(=O)c2ccccc23)c1 (stereo not given)	1.1
Nc1ccc2c(c1)C1(c3ccccc3)SCCN1C2=O (stereo not given)	4.5
Cc1cccc(C23SCCN2C(=O)c2ccccc23)n1 (stereo not given)	4.1
O=C1c2ccccc2[C@@]2(c3ccccc3)SCCN12	0.28
O=C1c2ccccc2C2(c3ccncc3)SCCN12 (stereo not given)	> 30
O=C1c2ccccc2C2(c3ccccc3)N1CC[S+]2[O-] (stereo not given)	1.45
C[C@@H]1CN2C(=O)c3ccccc3C2(c2ccccc2)O1 (stereo not given in full)	37.6
Nc1cccc(C23SCCN2C(=O)c2ccccc23)c1 (stereo not given)	4.6
O=C1c2ccccc2C2(c3cccc4ccccc34)SCCN12 (stereo not given)	0.13
O=C1c2ccccc2C2(c3cccc(C(F)(F)F)c3)SCCN12 (stereo not given)	1.05
CCc1cc(NCc2nc3c(Cl)ccc(Cl)c3o2)c(O)nc1C [L-697661]	0.001
